Data from patent US20150329918A1, “JAGGED1 AS A MARKER AND THERAPEUTIC TARGET FOR BREAST CANCER BONE METASTASIS” (The Trustees of Princeton University, priority 2011, published 2015).

Legend:
[1] = tested on: pre-osteoclast Raw 264.7 cells; assay: Osteoclastogenesis coculture assay (TRAP staining); assay type: cell-based, mouse
Protocol: After seeding 5×10^4 control or JAG1 OE tumor cells/well into 12-well plates, murine pre-osteoclast Raw 264.7 (2×10^5 cells/well) or MOCP5 (5×10^5 cells/well) cells in media containing 30 ng/ml RANKL and DMSO or 1 μM MRK-003 were added the next day. Media were changed every 2 days. TRAP staining was performed on day 6 using a leukocyte acid phosphatase kit (Sigma). TRAP^+-multinucleated cells were scored as mature osteoclasts. The number of nuclei per osteoclast was quantified using TRAP-stained images. Mouse specific qRT-PCR primers were used to selectively quantify Raw264.7 osteoclast gene expression levels after 6 days of coculture (see Table 1 below).
For primary osteoclast coculture assays, bone marrow cells were flushed out from femora and tibiae of 4- to 6-week-old wild-type FVB mice and plated in basal culture medium overnight. The next day, nonadherent cells were added at 1×10^6/well to 12-well plates that were previously seeded with either control or JAG1 OE tumor cells supplemented with 50 ng/ml RANKL and 50 ng/ml M-CSF. Medium was changed every 3 days. TRAP staining and scoring were performed on days 10-12.

SCP2 bone metastasis = assay: Bone metastasis xenograft, SCP2 cells injected intracardially, MRK-003 treatment; assay type: in vivo, mouse
Protocol: (§1) For bone metastsis studies, 10^5 tumor cells were injected into the left cardiac ventricle of anesthetized female athymic Ncr-nu/nu or BALB/c mice. Development of metastases was monitored by BLI. Bioluminescence images were acquired with a Xenogen IVIS 200 Imaging System. Analysis was performed with Living Image software by measuring photon flux in the hindlimbs of mice. Data were normalized to the signal on day 7. Bone metastasis-free survival curves represent the time point at which each mouse developed bone metastasis by threshold BLI signals in the hindlimbs. For the orthotopic xenograft model, mammary fat pad injections and primary tumor size measurements were performed following the procedure described previously (Minn et al., 2005, which is incorporated herein by reference as if fully set forth).
Osteolysis was assessed by X-ray radiography. Anesthetized mice were placed on single wrapped films (X-OMAT AR, Eastman Kodak) and exposed to X-ray radiography at 35 kV for 15 s using a MX-20 Faxitron instrument. Films were developed using a Konica SRX-101A processor. Osteolytic lesions were identified on radiographs as demarcated radiolucent lesions in the bone and quantified using the ImageJ software (National Institutes of Health).
Hindlimb bones were excised from mice at the end point of each experiment, immediately after the last BLI time point. Following this, the tumor-bearing hind limb bones were fixed in 10% neutral-buffered formalin, decalcified in 10% EDTA for 2 weeks, and embedded in paraffin for hematoxylin and eosin (H&E), tartrate-resistant acid phosphatase (TRAP) (Kos et al., 2003, which is incorporated herein by reference as if fully set forth), or immunohistochemical staining. Histomorphometric analysis was performed on H&E stained bone metastasis samples using the Zeiss Axiovert 200 microscope and the AxioVision software version 4.6.3 SP1. For quantitative analysis of lesion area, a 5× objective was used to focus on the tumor region of interest and images were acquired using the AxioCamICc3 camera set to an exposure of 100 ms. Lesions that were larger than the field of view were quantified by acquiring multiple images to encompass the entire lesion. The “spline” function of the AxioVision software was used to outline the region of interest and subsequently quantify the lesion area. Osteoclast number was assessed as multinucleated TRAP^+ cells along the tumor-bone interface and reported as number/mm of interface (Yin et al., 2003, which is incorporated herein by reference as if fully set forth). Immunohistochemical analysis was performed with heat-induced antigen retrieval. Primary antibodies used were anti-JAGGED1 (Santa Cruz, sc-6011) and anti-Ki67 (Dako, Denmark). Biotinylated secondary antibody was used with Vectastain ABC Kit (Vector Laboratories) and DAB detection kit (Zymed) to reveal the positively stained cells with nuclei counterstained with hematoxylin.
(§2) MRK-003 is a potent and specific gamma-secretase inhibitor whose biochemical, cellular and pharmacological properties have been extensively studied and reported. MRK-003 is a cyclic sulfamide with sub-nanomolar potency inhibiting gamma-secretase-mediated cleavage of Notch to its active form (NICD) (Lewis et al., 2007, which is incorporated herein by reference as if fully set forth). […] For xenograft experiments, mice were administered the vehicle (0.5% methylcellulose) or MRK-003 by oral gavage twice a week at a 100 mg/kg dosage. The dosing schedule was 2-days on, 5-days off. […]

Notch [2] = settings: cited from earlier work
[3] = tested on: primary mammary tumors of MDA231 sublines; assay: Orthotopic primary mammary tumor xenograft; settings: mouse, in vivo
Protocol: as §1, §2

[4] = tested on: Notch target genes and IL-6; assay: Species-specific qRT-PCR of the stromal compartment of bone metastases; assay type: in vivo; settings: mouse-specific qRT-PCR; FIG. 17A
Protocol: (§3) RNA from in vitro cultured cells or flow cytometry-separated cells was collected in RLT lysis buffer and extracted with RNeasy mini kit (Qiagen). RNA extraction from in vivo tissue samples was performed using Trizol (Invitrogen) according to the manufacturer's protocol. cDNA synthesis of RNA was performed using Superscript III First-Strand (Invitrogen). Quantitative RT-PCR was performed using Power Syber Green PCR Master Mix (Applied Biosystems) with the ABI Prism 7900HT thermocycler (Applied Biosystems) according to the manufacturer's protocol. A standard curve for each gene was generated by serial dilutions of a standard. Values were then normalized by the amount of GAPDH or β-actin in each sample. For in vivo samples, species-specific primers were employed for gene expression analysis in the tumor compartment (human) versus stroma compartment (mouse).

IL-6 = assay: Murine IL-6 ELISA and qRT-PCR in osteoblast cocultures; assay type: cell-based, mouse; settings: JAG1 OE coculture with MC3T3-E1; FIGS. 13B, 13C, 13E
Protocol: Quantitative levels of murine IL-6 in the conditioned medium of cultured and cocultured cells were determined in triplicate by ELISA according to the manufacturer's protocol (Quantikine immunoassay kit, R&D systems).
as §3

Notch [5] = settings: Tammam et al., 2009; cited from earlier work

## O=S1(=O)N[C@@]2(CN1CC(F)(F)F)[C@@H]1CC[C@H]2Cc2ccc(/C=C/CN3CCC(C(F)(F)F)CC3)cc2C1 [MRK-003]
[1]; 15-fold increase by JAG1 OE relative to controls, 1 μM MRK-003, FIG. 15A
  TRAP+ osteoclasts in JAG1 OE cocultures: essentially abolished
[1]; JAG1 OE cocultures
  mRNA expression of osteoclast differentiation markers in Raw 264.7 cells: suppressed
[1]; cocultures with Raw 264.7, FIG. 15C
  osteoclast size and number of nuclei: smaller osteoclasts with fewer nuclei
[1]; treatment 2 days after seeding, FIG. 15B
  Acp5 (mouse gene encoding TRAP) mRNA levels, delayed initiation of treatment (Late): failed to fully rescue
SCP2 bone metastasis; 100 mg/kg oral gavage twice a week, FIG. 16A
  reduction in bone metastasis burden by BLI: 5 fold
SCP2 bone metastasis; FIG. 16B
  delay in the onset of bone metastasis: ~10 days
SCP2 bone metastasis; FIG. 16C
  number of bone lesions: reduced
SCP2 bone metastasis; FIG. 16D
  reduction in X-ray lesion area: 2 fold
SCP2 bone metastasis; bone-tumor interface, FIG. 16E
  decrease in the number of TRAP+ osteoclasts: 3 fold
Notch [2]; Tammam et al., 2009
  efficacy with intermittent exposure in mice: robust efficacy
Notch [2]; recovery during dosing holiday
  intestinal effect resulting from Notch inhibition: transient intestinal metaplasia (goblet cell induction)
[3]
  growth rate of primary mammary tumors: not altered
  primary tumor xenografts of MDA231 sublines, control vs treated: no difference
[4]
  expression levels of Notch target genes and IL-6 in the stromal compartment of bone metastases: significantly reduced
IL-6
  IL-6 transcription and secretion from osteoblasts: dependent on the Notch pathway
Notch [5]
  duration of target engagement sufficient to induce potent Notch inhibition: 48 h
